# Laboratory results reported in patent US20090036410A1, “Structured Phospholipids” (BTG INTERNATIONAL LIMITED, priority 2004, published 2009).
# How the values were obtained:
# [1] = test system: EAE; details: guinea-pig; cited from earlier work
# [2] = test system: acute rat EAE; details: depending on dose; cited from earlier work
# [3] = test system: CREAE model MOG in C57BL mice; experiment: CREAE model, MOG-induced, clinical EAE score; format: in vivo
# [4] = Storage stability / handling of the isolated phospholipid; format: physicochemical
# From the text: Suitable diluents and carriers can be found in the literature in texts such as Remington's Pharmaceutical Sciences. One particular material investigated by the inventors has been PEG (polyethylene glycol) eg. PEG200. This can be used at amounts between 1 and 99% PEG to 99% to 1% by weight of active phospholipid, preferably 20 to 80% PEG to 80 to 20% of phospholipid and more preferably 40 to 60% PEG to 60 to 40% by weight of phospholipid.
# The invention provides a first method of its preparation of compounds GGPc, DHGLADHGLAPc and AAPc in a one step process (scheme 5, method A) by reaction of sn-glycerophosphocholine cadmium complex with γ-linolenic, dihomo-γ-linolenic, or arachidonic anhydride (formed eg. from the n-6 acid and dicylohexylcarbodiimide). Purification of the crude product uses eg. copper sulfate washes to remove DMAP and column chromatography to take out other by-products. The first batch of product for the γ-linolenic product (44 g, 85% purity) was obtained as a yellow wax.
# On a 7 g scale higher purity GGPc could be obtained by more rigorous chromatography. Furthermore freeze-drying a dioxan solution of this material gave a white solid. This solid was hygroscopic and gained weight and went to a foam on prolonged exposure to the atmosphere.
Compound,effect on incidence and severity of EAE [1],protection in acute rat EAE [2],"effect on EAE score compared to CCC (dose response curve) ([3]; 100 microL dose, p<0.050 compared to CCC (150 microL))",protection / severity of CREAE ([3]; 100 ul of 50% phospholipid in PEG200),"efficacy in the CREAE model compared to the lipid GGG of PCT/GB2004/003524 ([3]; MOG in C57BL mice, oral, initial results)","protection in CREAE ([3]; dose 100 ul, oral)","shape of dose response curve ([3]; doses 25, 50, 100 and 200 microL)",effect on EAE score (dose response curve) ([3]; higher dose of 200microL),"purity after storage (deterioration) ([4]; over 6 months, first batch, initially 85% purity yellow wax, turned brown suggesting oxidation)","hygroscopicity of freeze-dried white solid ([4]; prolonged exposure to the atmosphere, gained weight and went to a foam)"
CCCCC/C=C\C/C=C\CCCCCCCC(=O)O [linoleic acid],partially suppresses,dose-dependent action on the clinical severity but did not abolish it,,,,,,,,
"CCCCC/C=C\C/C=C\C/C=C\CCCCC(=O)OC[C@H](COP(=O)([O-])OCC[N+](C)(C)C)OC(=O)CCCC/C=C\C/C=C\C/C=C\CCCCC [GGPc, 1,2-Di(γ-linolenyl)-sn-glycerophosphocholine]",,,significant effect,protection/reduced severity,superior in efficacy,excellent protection,bell shaped curve,no effect,70%,hygroscopic
CCCCC/C=C\C/C=C\C/C=C\CCCCC(=O)O [γ-linolenic acid],,fully protective,,,,,,,,
